Measured values as given in US10889543B2, “Fine-tune modulators of neuronal excitability for neuropsychiatric disorders” (THE BOARD OF REGENTS OF THE UNIVERSITY OF TEXAS SYSTEM, priority 2016, dated 2021).
Residues, ends and D or L forms follow the SMILES beside them. *: point of attachment. Cbz = O=C(OCc1ccccc1)*; Boc = CC(C)(C)OC(=O)*

Legend:
[1] = biological target: T1, Nav1.6 channel in the presence of FGF14 (Homo sapiens, UniProt Q9UQD0); assay: Whole-cell patch clamp of Na+ currents in HEK-Nav1.6 cells expressing FGF14-GFP; format: cell-based
T1 construct: expressed in transfected cells; host or cells: HEK-Nav1.6 cells transiently transfected with FGF14-GFP
T1 sequence (Q9UQD0 whole entry): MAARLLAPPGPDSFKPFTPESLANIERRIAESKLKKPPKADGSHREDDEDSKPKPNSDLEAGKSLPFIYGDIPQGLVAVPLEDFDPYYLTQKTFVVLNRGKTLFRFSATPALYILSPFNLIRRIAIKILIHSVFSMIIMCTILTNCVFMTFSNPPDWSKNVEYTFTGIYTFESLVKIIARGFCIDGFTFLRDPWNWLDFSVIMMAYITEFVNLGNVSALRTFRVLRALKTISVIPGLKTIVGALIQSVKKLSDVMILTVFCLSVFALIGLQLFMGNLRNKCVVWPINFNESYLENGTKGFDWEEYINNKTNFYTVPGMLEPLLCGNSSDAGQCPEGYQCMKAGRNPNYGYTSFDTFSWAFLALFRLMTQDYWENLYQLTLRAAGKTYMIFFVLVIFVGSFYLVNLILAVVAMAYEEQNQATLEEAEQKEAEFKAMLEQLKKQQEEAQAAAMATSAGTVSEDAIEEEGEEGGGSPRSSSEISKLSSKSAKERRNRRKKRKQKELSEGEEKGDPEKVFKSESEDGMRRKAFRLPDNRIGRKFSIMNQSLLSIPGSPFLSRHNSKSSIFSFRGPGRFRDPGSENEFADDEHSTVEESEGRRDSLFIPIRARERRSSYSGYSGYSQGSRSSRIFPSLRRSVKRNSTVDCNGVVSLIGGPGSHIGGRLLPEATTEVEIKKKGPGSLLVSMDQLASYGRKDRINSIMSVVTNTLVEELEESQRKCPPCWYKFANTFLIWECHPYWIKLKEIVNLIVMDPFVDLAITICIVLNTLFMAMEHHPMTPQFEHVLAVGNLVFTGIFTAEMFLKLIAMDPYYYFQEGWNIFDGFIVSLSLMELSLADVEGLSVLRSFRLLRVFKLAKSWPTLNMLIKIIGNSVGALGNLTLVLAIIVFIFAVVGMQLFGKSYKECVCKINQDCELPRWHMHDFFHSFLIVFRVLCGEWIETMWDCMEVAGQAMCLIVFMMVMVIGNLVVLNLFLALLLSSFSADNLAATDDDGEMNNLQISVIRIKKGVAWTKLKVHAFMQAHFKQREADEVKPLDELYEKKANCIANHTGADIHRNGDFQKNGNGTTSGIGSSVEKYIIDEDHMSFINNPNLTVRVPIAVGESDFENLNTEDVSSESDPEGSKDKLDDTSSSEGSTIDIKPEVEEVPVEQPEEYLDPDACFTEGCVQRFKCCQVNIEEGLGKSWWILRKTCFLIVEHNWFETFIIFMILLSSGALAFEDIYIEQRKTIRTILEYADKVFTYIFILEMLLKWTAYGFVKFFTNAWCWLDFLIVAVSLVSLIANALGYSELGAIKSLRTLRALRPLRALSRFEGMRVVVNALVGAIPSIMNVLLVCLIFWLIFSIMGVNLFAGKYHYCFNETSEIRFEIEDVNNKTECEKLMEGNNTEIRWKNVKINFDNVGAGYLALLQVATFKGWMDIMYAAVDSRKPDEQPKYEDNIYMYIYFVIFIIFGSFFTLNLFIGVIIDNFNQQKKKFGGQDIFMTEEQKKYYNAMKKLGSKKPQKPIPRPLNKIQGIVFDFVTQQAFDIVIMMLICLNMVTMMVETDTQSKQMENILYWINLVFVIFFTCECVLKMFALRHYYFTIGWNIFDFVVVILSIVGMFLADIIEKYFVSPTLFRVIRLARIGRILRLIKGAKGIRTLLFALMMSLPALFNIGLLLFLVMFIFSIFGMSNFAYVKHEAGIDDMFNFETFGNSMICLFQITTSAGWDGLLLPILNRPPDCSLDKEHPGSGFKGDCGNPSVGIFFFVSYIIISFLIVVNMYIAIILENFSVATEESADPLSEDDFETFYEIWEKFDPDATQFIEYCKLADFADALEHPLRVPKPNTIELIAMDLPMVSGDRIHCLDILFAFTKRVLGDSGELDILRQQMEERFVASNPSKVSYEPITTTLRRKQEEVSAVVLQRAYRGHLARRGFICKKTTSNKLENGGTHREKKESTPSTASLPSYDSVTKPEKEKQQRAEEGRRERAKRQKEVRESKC
Description: To determine the role of compounds of the invention in Nav1.6 channels alone and Nav1.6 channels in the presence of FGF14, 2×2 experimental groups using compound ZL0181, an exemplary embodiment, were designed. HEK-Nav1.6 cells were transiently transfected with GFP or […] and treated with either DMSO (0.15% final concentration, control group) or ZL0181 (20 μM, final concentration) 20-60 min prior to the experiments. […] Thus, ZL0181 inhibits peak current amplitude of Na1.6 current.
The role of ZOL181 in Nav1.6 channel in the presence of FGF14 was then investigated. […] Furthermore, the role of ZL0181 to modulate the biophysical properties of Nav1.6 channel in the presence of FGF14 was investigated. In consistency with previous studies, voltage dependence of activation and steady-state inactivation kinetics changes in the cells expressing FGF14-GFP compared with control (FIG. 3C). […] Thus, ZL0181 works synergistically with FGF14 to regulate the peak current amplitude as well as the inactivation kinetics.
Furthermore, using a range of doses from 1 μM to 100 μM a dose-response profile for ZL0181 in HEK293-Nav1.6 cells alone and HEK-Nav1.6 cells transfected with FGF14 was developed.
HEK-Nav1.1, […] HEK-Nav1.6 were maintained in medium composed of equal volumes of DMEM and F-12 (Invitrogen) supplemented with 0.05% glucose, 0.5 mm pyruvate, 10% fetal bovine serum, 100 units/ml penicillin, 100 μg/ml streptomycin incubated at 37° C. with 5% CO2. For selection of Nav1.1 and Nav1.2, 500 μg/ml G418 (Invitrogen) was used, and for selection of Nav1.6, 80 μg/ml G418 (Invitrogen) was used. Cells were transfected according to manufacturer's instructions at 90-100% confluency using Lipofectamine 2000 (Invitrogen). See e.g., Shavkunov, A., et al. Assay and drug development technologies 10(2):148-160 (2012).
Detailed methods for path-clamp experiments is known in the art. See e.g., Ali, S. R., et al., Journal of Biological Chemistry 291:11268 (2016).

FGF14 = biological target: T2, FGF14 (Homo sapiens, UniProt Q92915); assay: Surface plasmon resonance spectroscopy, immobilized FGF14; format: binding; settings: SPR, 25° C., 10-200 μM
T2 construct: made in house
T2 sequence (Q92915 64-252 isoform Q92915-2 limits assumed): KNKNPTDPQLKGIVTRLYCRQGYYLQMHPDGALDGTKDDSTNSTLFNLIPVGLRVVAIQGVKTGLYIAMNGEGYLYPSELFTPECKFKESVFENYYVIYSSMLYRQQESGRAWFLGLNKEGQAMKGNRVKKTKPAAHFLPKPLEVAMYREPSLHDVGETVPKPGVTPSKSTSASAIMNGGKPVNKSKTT
Description: Surface Plasmon Resonance Spectroscopy. SPR experiments were performed on a Biacore T100 instrument (Biacore GE), and the interaction between FGF14 to Nav1.6 channel was studied at 25° C. To analyze the effects of ZL0181 on channel binding, FGF14WT and Nav1.6 C-tail were immobilized using acetate 5.5 with amine coupling kit on CM5 sensor chip, and obtaining RU 3000 and 4500 respectively. No protein was coupled to the control flow channel of the chip. ZL0181 (5-200 μM) in HBS-P+(50 μl/min) buffer ([…], 150 mM NaCl, 0.005% (v/v) P20), pH 7.4 were injected over the chip for 180 s. Next, HB S-P+ buffer without protein were passed over the chip for 180 s to monitor dissociation, and the chip surface was then regenerated with NaCl (200 mM). For each injection of ZL0181 binding to the FGF14WT or the Nav1.6, the nonspecific responses were subtracted from the responses obtained for control prior to data analysis. Maximal equilibrium responses were plotted against the concentrations of ZL0181, and the equilibrium dissociation constant (KD) was calculated from the fitted saturation binding curve. Fitted binding curves were judged to be accurate based on the distribution of the residuals (even and near zero). Graphs were plotted in GraphPad Prism 6 Software (La Jolla, Calif.).
The role of ZL0181 was further determined by surface plasmon resonance spectroscopy. […]

CC(C)C[C@H](NC(=O)[C@H](Cc1ccccc1)NC(=O)OCc1ccccc1)C(=O)N1CCC[C@H]1C(=O)N[C@@H](CCCCNC(=O)OC(C)(C)C)C(N)=O [ZL0181, Z-Phe-Leu-Pro-Lys(Boc)-NH2] (Cbz-FLPK(Boc)-NH2)
steady-state inactivation (depolarizing shift induced by FGF14-GFP) ([1]; FGF14-GFP-expressing HEK-Nav1.6 cells, 20 μM): rescued the depolarizing shift of the steady-state inactivation induced by FGF14-GFP expression back to control levels
Na+ current peak amplitude (peak current density) ([1]; FGF14-GFP-expressing HEK-Nav1.6 cells, 20 μM, n=19, DMSO control −18.1±3.8): −7.4±4.4 pA/pF
IC50 ([1]; HEK-Nav1.6 cells transfected with FGF14, doses 1 μM to 100 μM, read-out: IC50, inhibition of Nav1.6 encoded currents in presence of FGF14): 11.5 ± 1.3 µM
Kd (FGF14): 13 µM
